This is an account of results in article PMC10917340, “Coxsackievirus infection induces direct pancreatic β cell killing but poor antiviral CD8^+ T cell responses” (Science Advances, 2024).

In test [1] the target is T1, HLA-A2 (Homo sapiens, UniProt P04439, D140Y/D185E/D98H/E176V/E277Q/G131W/G231S/I119V/I121R/I166T/I218V/N151K/N90K/P208A/P217A/Q86G/Q94H/R138H/R169H).
T1 construct: purchased ImmunAware
The test is described as follows: In vitro HLA-I binding assay (bead-captured folded monomers).

The subject of test [2] is circulating CD8+ T cells. The test is described as follows: Combinatorial HLA-A2 multimer (MMr) assay, screening round. It counts as cell-based, human. Conditions: for Screening round % effector/memory median (range): HLA-A2, effector/memory (non CD45RA+CCR7+) fraction among MMr+CD8+ T cells; for Screening round Frequency median: HLA-A2 MMr+CD8+ T cells out of total CD8+ T cells, frozen/thawed PBMCs, CVB-seropositive healthy adults, median of donors.

The test system of test [3] is circulating CD8+ T cells. The test is described as follows: Combinatorial HLA-A2 multimer (MMr) assay, validation round. Type of test: cell-based, human. The settings on record: HLA-A2 MMr+CD8+ out of total CD8+ T cells; donors/peptides with <3 MMr+ cells noted as 1.0E-7.
Setting [4] is: in silico predicted HLA-A2-binding peptides, fig. S2D.

Like-named read-outs stand apart in the source and are kept apart here.

For KLPDALSQM, the “In vitro binding to HLA-A2 (in words)” value in test [1] (setting [4]) is listed as “did not confirm as binders”.

With “VMIKSLPAL [CVB4-6 60-68, HLA-A2, in silico]”, in test [2], the “Screening round % effector/memory median (range)” value was 20 (20-20) % and the “Screening round Frequency median” value was 5.3 E-6.

As to VIASYPWPI, the “In vitro binding to HLA-A2 (in words)” value in test [1] was “did not confirm as binders”.

As for “IMIKSMPAL [CVB1-2-5 60-68, HLA-A2, in silico]”, the “Validation round Frequency median” value in test [3] was 1.0 E-7. Besides, in test [2], the “Screening round % effector/memory median (range)” value is 26 (0-70) % and the “Screening round Frequency median” value was 2.2 E-5.

As to “VMGDALGSV [ZnT8245-253 peptide homologous to CVB1 150-158]”, the “In vitro binding to HLA-A2 (in words)” value in test [1] (setting [4]) is given as “did not confirm as binders”.

For the sequence “GIIYIIYKL [previously reported CVB peptide, IEDB #20311]”, the “In vitro binding to HLA-A2 (in words)” value in test [1] is recorded as “did not confirm as binders”.
